Experiments:
rFTR1 promoter = experiment: Green fluorescent protein (GFP) reporter assay, rFTR1 promoter; assay type: cell-based, Rhizopus oryzae; conditions: R. oryzae M16 transformed with rFTR1p::GFP
Excerpt: A 1.5 kb fragment upstream of the rFTR10RF was PCR amplified using the following primer pair: sense primer 5′-[…]-3′; and anti-sense primer 5′-[…]-3′. A 2.1 kb fragment containing the constitutively expressed actin promoter was also PCR amplified to use as a control using the following primer pair: sense 5′[…]-3′; and anti-sense:5′ […]-3. Amplified fragments were ligated into the XbaI and EagI sites of plasmid pyr225b (35). GFP was amplified from pGFPB21-43.31 (36), and cloned downstream of either promoter into EagI-SacI sites of the plasmid downstream of either promoter. Finally, a 2.1 kb fragment representing the ORF of pyrF and its native promoter was cloned into SpeI-ClaI sites of the plasmid to serve as a selection marker. […] Purified transformants selected on uracil negative plates were analyzed by Southern blotting.
Expression of rFTR1p and ACT1p were studied in transformants grown in iron-replete medium (i.e. YNB+CSM-URA) or iron-depleted conditions (i.e. YNB+CSM-URA supplemented with 2 mM deferasirox). […] Additionally, a 1 ml sample from each culture was also used to quantify the fluorescence emission using a FACSCaliber™ (Becton Dickinson®) instrument equipped with an argon laser emitting at 488 nm. Spores were gated by forward and side scatter and fluorescence measured in FL1. […]

[1] = Deferasirox toxicity studies in neutropenic mice; assay type: in vivo; conditions: uninfected neutropenic mice
Protocol: Toxicity of deferasirox in neutropenic mice was evaluated. Mice were rendered neutropenic as above and treated with deferasirox at 10 mg/kg twice every day or every other day for 7 days. Mice from three different groups (i.e. placebo, deferasirox daily treatment, and deferasirox every other day treatment) were sacrificed on day 3 or 8 and blood was collected and sent for Charles River Laboratories for evaluation. Additionally, bone marrow smears were prepared from femurs, and tissues were collected, preserved in zinc-buffered formalin, embedded in paraffin, sectioned at 5 μm, and stained with hematoxylin and eosin. The resulting slides were examined by a board-certified veterinary pathologist at Charles River Laboratories.
Because deferasirox dosing every other day was optimal in the neutropenic model, we sought to identify any potential toxicity caused by daily dosing of deferasirox in neutropenic mice. Mice were made neutropenic with cyclophosphamide as above, but were not infected. The mice were treated with deferasirox 10 mg/kg twice daily for seven days, 10 mg/kg twice every other day for 4 doses, or placebo. Terminal bleeds were performed on day 3 or day 8 to measure complete blood count, serum chemistries, and liver function tests. […]

[2] = test system: Th1/Th2 and inflammatory cytokine responses; experiment: Splenic lymphocyte frequency and whole organ cytokines in infected DKA mice; assay type: in vivo
Protocol: Splenic lymphocyte frequencies were determined as we have previously described (Spellberg et al., Infect. Immun. 71:5756-5764 (2003)). In brief, splenic homogenates were passed through 70 μm filters followed by RBC lysis with 0.15 M ammonium chloride. The cells were fixed with Cytofix™ buffer (BD Pharmingen®), permeabilized with Cytoperm™ buffer (BD Pharmingen), and stained with 10 μg/ml of FITC-conjugated anti-mouse CD4 (clone RM4-5), PE-conjugated anti-mouse IFN-γ (clone XMG1.2) or isotype control (clone R-34), allophycocyanin (APC)-conjugated anti-mouse IL-4 (clone 11B11) or isotype control (clone R3-34), or APC-conjugated anti-mouse IL-10 (clone JES5-16E3) or isotype control (clone A95-1) (all from BD Pharmingen). In separate experiments, the frequency of CD4+CD25+foxp3+T-regulatory cells were determined using the Mouse Regulatory T cell Staining™ Kit (eBioscience®) per the manufacturer's recommendation. The frequency of apoptosis was determined using the Annexin FITC Apoptosis™ kit (BD Pharmingen®).
Cells were washed and three-color flow cytometry was performed on a Becton-Dickinson FACScan™ instrument calibrated with CaliBRITE™ beads (BD Pharmingen) using FACSComp™ software as per the manufacturer's recommendations. During data acquisition, CD4+lymphocytes were gated by concatenation of forward and side scatter, and FITC-anti-CD4 antibody fluorescence properties. Data for each sample were acquired until 10,000 CD4+lymphocytes were analyzed.
Spleens and kidneys were homogenized in 1 ml of PBS. The homogenates were pelleted at maximum speed on a tabletop centrifuge at 4° C. The supernatants were assayed for cytokines using the Cytometric Bead Array Murine Inflammatory Cytokine™ kit (BD Pharmingen) per the manufacturer's instructions.
Because of the alterations in inflammatory cellular influx seen in kidneys of mice treated with saturating ferric chloride vs. iron chelation, in this example we determined the impact of deferasirox therapy on Th1/Th2 and inflammatory cytokine responses in infected mice. Diabetic ketoacidotic mice were infected with 3.1×10^4 spores of R. oryzae 99-892 as above and treated with deferasirox, deferasirox plus ferric chloride, or placebo. On day four of infection, spleens and kidneys were processed for intracellular and whole organ cytokine determination.

[3] = R. oryzae 99-892, between the groups
[4] = R. oryzae 99-892, vs saturating iron or placebo

For O=C(O)c1ccc(-n2nc(-c3ccccc3O)nc2-c2ccccc2O)cc1 [Deferasirox, 4-[3,5-Bis(2-hydroxyphenyl)-1H-1,2,4-triazol-1-yl]-benzoic acid], which “GFP fluorescence by confocal microscopy” value (rFTR1 promoter; 2 mM deferasirox) is on record?
Its value is “fluorescent”.

And the “fluorescent spores by flow cytometry” value (rFTR1 promoter; 2 mM deferasirox overnight, iron-replete less than 1%)?
Its value is 43%.

And the “white cell, neutrophil, platelet counts, hemoglobin, serum chemistries, liver function tests versus placebo” value ([1]; 10 mg/kg twice daily 7 days or twice every other day 4 doses, day 3 or 8)?
Its value is “No differences”.

And the “organ toxicity by histopathology” value ([1]; 10 mg/kg twice daily or twice every other day)?
Its value is “no organ-specific toxicity attributable to deferasirox”.

What about the “Th1 and Th2 splenocyte frequencies” value ([2]; 3.1×10^4 spores R. oryzae 99-892, day four, vs saturating ferric chloride or placebo) of the same compound?
Its value is “significant increase”.

What about the “kidney level of IFN-γ” value ([2]; R. oryzae 99-892) of the same compound?
The value was “significantly higher”.

What about the “frequencies of CD4+IL-10+ or CD4+CD25+foxp3+ splenocytes” value [2, 3] of the same compound?
Its value is “not significantly different”.

And the splenocyte apoptosis [2, 3]?
Its splenocyte apoptosis is “no significant difference”.

And the “splenic level of IFN-γ” value [2, 4]?
Its value is “significantly higher”.

What about the “splenic level of TNF” value [2, 4] of the same compound?
Its value is “significantly higher”.
